From article PMC8321398, “The discovery of a novel series of compounds with single-dose efficacy against juvenile and adult Schistosoma species” (PLoS Neglected Tropical Diseases, 2021)

Key:
[1] = in vivo; settings: rat
[2] = rat, in vivo
[3] = system: panel of 38 in vitro toxicity targets (receptors, channels, transporters); assay: Broad selectivity panel (Cerep), radioligand receptor binding assays; settings: 1uM
Procedure: Selectivity was assessed at Cerep (Celle l’ Evescault, France), as described in the Cerep catalog, against a panel of in vitro radioligand receptor binding assays with 38 different receptors, channels, and transporters selected as targets to avoid for safety reasons (beta 1, beta 2, NMDA, MAO-A, 5-HT1B, CCK1 (CCKA), BZD (central), delta (DOP), A2A, CB1, CB2, D1, D2S, ETA, H1, H2, M1, M2, M3, 5-HT1A, 5-HT2A, 5-HT2B, 5-HT3, GR, AR, V1a, kappa (KOP), mu (MOP), alpha 1A, alpha 2A, Ca2+ channel, Potassium Channel, Kv channel, Na+ channel, N neuronal alpha 4 beta 2, norepinephrine transporter, dopamine transporter, 5-HT transporter). The specific ligand binding to the receptors is defined as the difference between the total binding, and the nonspecific binding determined in the presence of an excess of unlabelled ligand.

[4] = system: S. mansoni worms; assay: In vitro potency assay with varied FBS level; assay type: cell-based; settings: Schistosoma mansoni
Excerpt: (§1) These early experiments also allowed us to use the PK Tool to predict the dose to use in the mouse efficacy models. As part of the prediction we need to recognise that the measured in vitro potency will be different from that in whole blood. […] They also display high protein binding in plasma, assay media and microsomal stability assays. […] Measurement of binding of LSHTM-3520 in the assay medium gave a free fraction, Fu of 0.0014. An experiment was run using LSHTM-3520 to determine whether the potency shift on varying the plasma protein level in the in vitro assay accords with prediction.

[5] = Observation of mice for adverse clinical signs / ill effects; assay type: in vivo; settings: 200 mg/kg single oral dose, one mouse 400 mg/kg
Procedure: Prior to in vivo efficacy experiments, a single animal was given a dose of drug (using the same formulation) that was twice as large as that planned for use in the efficacy experiments and was observed periodically for adverse clinical signs for 24h by trained veterinarians. Adverse clinical signs checked include postural defect, vocalization, oculo-nasal discharge, hypersalivation, change in activity, abnormal gait, respiration and pulse, piloerection, loss of pupillary reflex, eyelid reflex, chromodacryorrhea, reaction to handling, tremor, convulsions, prostration, diarrhoea, cachexia, emaciation. […] In vivo efficacy was assessed in female CD1 mice using methods based on those previously described. Mice were infected subcutaneously with 150 cercariae. Test compounds were suspended in 7% Tween-80 / 3% Ethanol / double distilled water and drug dispersal was facilitated by vortexing and using a sonicating water bath (Formulation “Aqueous”). Alternatively, drugs were first dissolved in DMSO, then diluted with corn oil to give a 1:19 DMSO:corn oil solution/suspension of test compound (Formulation “Corn oil”). […] Worms were recovered by portal perfusion with citrate saline 8–14 days post treatment and counted. Differences between groups relative to the non-drug treated controls were assessed for statistical significance by Student’s unpaired t-test using GraphPad Prism Software. […]

[6] = Binding in the assay medium; assay type: in vitro ADME
Excerpt: as §1

SMILES: Fc1ccc(-c2cn3c(-c4ccc5[nH]ncc5c4F)c(C(F)(F)F)nc3cn2)cc1C(F)(F)F [LSHTM-3642, 3-(4-fluoro-1H-indazol-5-yl)-6-(4-fluoro-3-(trifluoromethyl)phenyl)-2-(trifluoromethyl)imidazo[1,2-a]pyrazine]
- AUC(0-inf) ([1]; iv, 1 mg/kg): 5000 ng·h/mL
- Vd ([1]; iv, 1 mg/kg): 8.8 L/kg
- bioavailability ([1]; po, 10 mg/kg): 67%
- Clobs ([2]; iv, 1 mg/kg): 3.33 mL/min/kg
- Plasma conc @ 24 h after oral dose ([2]; po, 10 mg/kg, 24 h): 357 ng/mL

SMILES: Fc1ccc(-c2cn3c(-c4ccc5[nH]ncc5c4F)c(C(F)(F)F)nc3cn2)cc1C(F)(F)C(F)(F)F [LSHTM-3645]
- activity against panel of 38 in vitro toxicity targets [3]: no reproduceable activity

SMILES: CC(C)c1nc2cnc(-c3ccc(F)c(C(F)(F)F)c3)cn2c1-c1c(F)cc(O)cc1F [LSHTM-3520]
- EC50 ([4]; 3% FBS): 8 nM
- EC50 ([4]; 10% FBS): 24.4 nM
- EC50 ([4]; 30% FBS): 75 nM
- issues observed with the animals exposed [5]: no issues observed
- fraction unbound ([6]; bovine, assay medium of the in vitro potency assay, read-out: free fraction, Fu): 0.0014
- recovery ([6]; bovine, in vitro potency assay medium with Foetal Bovine Serum, in vitro assay medium): 69.3%
- Assay medium %binding ([6]; in vitro assay medium): 99.86%
